Experimental data: patent US20080267914A1, “Chemical Compounds” (priority 2005, published 2008)

Columns and labels:
[1] = system: HCV replicon cells Huh 9B; assay: HCV replicon luciferase assay; type: cell-based, hepatitis C virus; conditions: Huh 9B replicon cells, 72 h incubation, luciferase readout
Method: (§1) HCV replicon cells Huh 9B (ReBlikon), containing the firefly luciferase—ubiquitin—neomycin phosphotransferase fusion protein and EMCV-IRES driven HCV polyprotein with cell culture adaptive mutations.
(§2) Cells were cultured at 37° C. in a 5% CO2 environment and split twice a week on seeding at 2×10E6 cells/flask on day 1 and 1×10E6 3 days later. Some 0.25 mg/ml G418 was added to the culture medium (125 ul per 25 ml) but not the assay medium.
(§3) The culture medium consisted of DMEM with […] glucose and glutamax (Gibco 61965-026) supplemented with 1× non-essential amino acids, penicillin (100 IU/ml)/streptomycin (100 μg/ml), FCS (10%, 50 ml) and 1 mg/ml G418 (Invitrogen cat no 10131-027) & 10% foetal calf serum.
(§4) A flask of cells was trypsinised and a cell count carried out. Cells were diluted to 100,000 cells/ml and 100 μl of this used to seed one opaque white 96-well plate (for the replicon assay) and one flat-bottomed clear plate (for the tox assay) for every seven compounds to be tested for IC50. Wells G12 and H12 were left empty in the clear plate as the blank. Plates were then incubated at 37° C. in a 5% CO2 environment for 24 h.
(§5) On the following day compound dilutions are made up in medium at twice their desired final concentration in a clear round bottomed plate. All dilutions have a final DMSO concentration of 1%.
(§6) Once the dilution plate had been made up, controls and compounds were transferred to the assay plate (containing the cells) at 100 μl /well in duplicate plates.
(§7) Exception: in the white (replicon) plate, no compound was added to wells A1 and A2 and 100 μl of 1% DMSO was added to these instead. In the clear (Tox) plate, wells E12 & F12 only contained the DMSO control. Plates were then incubated at 37° C. with 5% CO2 for 72 h.
At the end of the incubation time, the cells in the white plate were harvested by washing with 200 μl/well of warn (37° C.) PBS and lysed with 20 μl cell culture lysis buffer (Promega). After 5 min incubation @ RT, luciferin solution was added to the luciferase assay buffer (LARB at 200 μl per 10 ml LARB. The M injector of the microplate luminometer (Lmax, Molecular Devices) was primed with […] injections. Plate were inserted into the luminometer and 100 μl luciferase assay reagent was added by the injector on the luminometer. The signal was measured using a 1 second delay followed by a 4 second measurement programme. The IC50, the concentration of the drug required for reducing the replicon level by 50% in relation to the untreated cell control value, can be calculated from the plot of the percentage reduction of the luciferase activity vs. drug concentration.

[2] = system: HCV replicon cells Huh 9B; type: cell-based; conditions: Huh 9B replicon cells, 72 h incubation, methylene blue absorbance at 620 nm
Method: as §1, §2, §3, §4, §5, §6, §7
The clear plate was stained with 100 μl 0.5% methylene blue in 50% ethanol at RT for 1 h, followed by solvation of the absorbed methylene blue in 100 μl per well of 1% lauroylsarcosine. Absorbance of the plate was measured on a microplate spectrophotometer (Molecular Devices) and the absorbance for each concentration of compound expressed as a proportion of the relative DMSO control. The TD50, the concentration of drug required to reduce the total cell area by 50% relative to the DMSO controls can be calculated by plotting the absorbance at 620 nm vs drug concentration.

SMILES | IC50 ([1]; Hepatitis C virus) [nM] | Replicon TD5O [2] | IC50 [1] [nM]
c1nc(Nc2ccc(N3CCOCC3)cc2)c2cc(-c3ccc(OCCN4CCOCC4)cc3)ccc2n1 [Example 1, {6-[4-(2-Morpholin-4-yl-ethoxy)-phenyl]-quinazolin-4-yl}-(4-morpholin-4-yl-phenyl)-amine] | < 5000 | *** (>25 uM = ***) | –
c1nc(Nc2ccc(N3CCOCC3)cc2)c2cc(-c3ccc(OCCCN4CCOCC4)cc3)ccc2n1 [Example 2, (4-Morpholin-4-yl-phenyl)-{6-[4-(3-morpholin-4-yl-propoxy)-phenyl]-quinazolin-4-yl}-amine] | < 1000 | ** (>10 uM = **) | –
COc1ccc(-c2ccc3ncnc(Nc4ccc(N5CCOCC5)cc4)c3c2)cc1OC [Example 3, [6-(3,4-Dimethoxy-phenyl)-quinazolin-4-yl]-(4-morpholin-4-yl-phenyl)-amine] | < 1000 | ** (>10 uM = **) | –
CCOc1ccc(-c2ccc3ncnc(Nc4ccc(N5CCOCC5)cc4)c3c2)cc1OCC [Example 4] | – | ** (>10 uM = **) | < 1000
Fc1cc(-c2ccc3ncnc(Nc4ccc(N5CCOCC5)cc4)c3c2)ccc1OCCN1CCOCC1 [Example 5, {6-[3-Fluoro-4-(2-morpholin-4-yl-ethoxy)-phenyl]-quinazoline-4-yl}-(4-morpholin-4-yl-phenyl)-amine] | < 1000 | *** (>25 uM = ***) | –
